From paper PMC4917279 (Journal of Medicinal Chemistry, 2016)

How the values were obtained:
Type in all cases: binding
Conditions in all cases: read-out: %Ctrl @ 1000 nM
DRAK2 = target: T1, DRAK2 (Homo sapiens, UniProt O94768); assay: KINOMEscan
T1 construct: purchased DiscoveRx KINOMEscan

CSNK1A1L = target: T2, CSNK1A1L (Homo sapiens, UniProt Q8N752); assay: KINOMEscan
T2 construct: purchased DiscoveRx KINOMEscan

PIK4CB = target: T3, PIK4CB (Homo sapiens, UniProt Q9UBF8); assay: KINOMEscan
T3 construct: purchased DiscoveRx KINOMEscan
T3 sequence (Q9UBF8 whole entry): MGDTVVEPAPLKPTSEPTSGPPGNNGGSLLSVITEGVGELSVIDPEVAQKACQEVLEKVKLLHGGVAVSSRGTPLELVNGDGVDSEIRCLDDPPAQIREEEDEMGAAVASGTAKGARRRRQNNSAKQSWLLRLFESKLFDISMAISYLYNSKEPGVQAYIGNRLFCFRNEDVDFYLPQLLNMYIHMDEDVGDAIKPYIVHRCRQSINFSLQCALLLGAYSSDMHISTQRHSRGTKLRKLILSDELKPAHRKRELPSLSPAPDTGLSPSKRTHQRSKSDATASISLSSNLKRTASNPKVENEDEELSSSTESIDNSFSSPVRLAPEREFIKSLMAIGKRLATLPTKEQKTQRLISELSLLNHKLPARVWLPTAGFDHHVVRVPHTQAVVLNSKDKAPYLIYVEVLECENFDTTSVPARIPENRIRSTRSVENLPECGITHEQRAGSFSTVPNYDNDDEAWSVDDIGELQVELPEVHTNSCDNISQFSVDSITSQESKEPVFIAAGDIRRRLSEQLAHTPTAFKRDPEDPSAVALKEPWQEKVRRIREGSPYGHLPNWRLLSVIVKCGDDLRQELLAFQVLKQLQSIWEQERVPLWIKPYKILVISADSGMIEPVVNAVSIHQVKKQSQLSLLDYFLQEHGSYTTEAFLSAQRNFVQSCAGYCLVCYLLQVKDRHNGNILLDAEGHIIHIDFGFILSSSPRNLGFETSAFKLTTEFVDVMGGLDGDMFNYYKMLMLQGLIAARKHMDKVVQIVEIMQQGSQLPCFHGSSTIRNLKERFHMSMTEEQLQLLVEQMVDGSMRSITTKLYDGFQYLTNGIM

NEK4 = target: T4, NEK4 (Homo sapiens, UniProt P51957); assay: KINOMEscan
T4 construct: purchased DiscoveRx KINOMEscan

DCAMKL2 = target: T5, DCAMKL2 (Homo sapiens, UniProt Q8N568); assay: KINOMEscan
T5 construct: purchased DiscoveRx KINOMEscan

ROCK1 = target: T6, ROCK1 (Homo sapiens, UniProt Q13464); assay: KINOMEscan
T6 construct: purchased DiscoveRx KINOMEscan

CDK2 = target: T7, CDK2 (Homo sapiens, UniProt P24941); assay: KINOMEscan
T7 construct: purchased DiscoveRx KINOMEscan

MYLK4 = target: T8, MYLK4 (Homo sapiens, UniProt Q86YV6); assay: KINOMEscan
T8 construct: purchased DiscoveRx KINOMEscan

GAK = target: T9, GAK (Homo sapiens, UniProt O14976); assay: KINOMEscan
T9 construct: purchased DiscoveRx KINOMEscan

MERTK = target: T10, MERTK (Homo sapiens, UniProt Q12866); assay: KINOMEscan
T10 construct: purchased DiscoveRx KINOMEscan

MAP3K2 = target: T11, MAP3K2 (Homo sapiens, UniProt Q9Y2U5); assay: KINOMEscan
T11 construct: purchased DiscoveRx KINOMEscan

PRKD2 = target: T12, PRKD2 (Homo sapiens, UniProt Q9BZL6); assay: KINOMEscan
T12 construct: purchased DiscoveRx KINOMEscan

p38-delta = target: T13, p38-delta (Homo sapiens, UniProt O15264); assay: KINOMEscan
T13 construct: purchased DiscoveRx KINOMEscan

RET(V804M) = target: T14, RET(V804M) (Homo sapiens, UniProt P07949, V804M); assay: KINOMEscan
T14 construct: purchased DiscoveRx KINOMEscan
T14 sequence (P07949 29-1114 V804M): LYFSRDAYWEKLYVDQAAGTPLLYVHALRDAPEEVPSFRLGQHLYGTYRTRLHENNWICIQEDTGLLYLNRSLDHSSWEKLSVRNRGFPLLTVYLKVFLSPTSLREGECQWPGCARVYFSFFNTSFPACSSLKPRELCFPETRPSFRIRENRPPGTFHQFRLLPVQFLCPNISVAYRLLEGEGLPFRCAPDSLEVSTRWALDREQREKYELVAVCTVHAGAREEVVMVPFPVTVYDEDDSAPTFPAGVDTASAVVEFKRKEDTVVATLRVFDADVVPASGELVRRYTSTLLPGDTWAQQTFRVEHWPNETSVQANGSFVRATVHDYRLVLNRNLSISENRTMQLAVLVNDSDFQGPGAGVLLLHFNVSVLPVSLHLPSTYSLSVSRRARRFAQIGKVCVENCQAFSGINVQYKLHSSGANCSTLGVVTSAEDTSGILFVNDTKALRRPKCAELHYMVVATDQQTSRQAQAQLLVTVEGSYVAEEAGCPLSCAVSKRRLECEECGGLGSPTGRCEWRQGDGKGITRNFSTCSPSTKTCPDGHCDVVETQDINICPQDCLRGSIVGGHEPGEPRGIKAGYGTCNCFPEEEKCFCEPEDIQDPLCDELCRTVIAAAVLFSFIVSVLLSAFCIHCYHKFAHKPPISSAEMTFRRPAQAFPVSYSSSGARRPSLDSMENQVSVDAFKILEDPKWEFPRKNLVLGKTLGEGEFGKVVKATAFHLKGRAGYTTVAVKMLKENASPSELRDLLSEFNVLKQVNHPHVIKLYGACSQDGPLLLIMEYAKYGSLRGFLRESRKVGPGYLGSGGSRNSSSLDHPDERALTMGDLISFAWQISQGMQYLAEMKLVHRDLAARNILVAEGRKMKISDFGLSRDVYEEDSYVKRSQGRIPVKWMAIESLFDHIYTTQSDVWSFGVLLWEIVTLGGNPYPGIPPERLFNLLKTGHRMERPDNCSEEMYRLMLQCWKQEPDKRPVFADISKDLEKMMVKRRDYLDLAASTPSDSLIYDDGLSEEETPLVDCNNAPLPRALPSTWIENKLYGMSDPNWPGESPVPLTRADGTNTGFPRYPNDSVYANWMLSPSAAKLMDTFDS

PKNB(M.tuberculosis) = target: T15, PKNB(M.tuberculosis) (Mycobacterium tuberculosis, UniProt P9WI81); assay: biochemical
T15 construct: purchased DiscoveRx KINOMEscan

SRPK3 = target: T16, SRPK3 (Homo sapiens, UniProt Q9UPE1); assay: KINOMEscan
T16 construct: purchased DiscoveRx KINOMEscan
T16 sequence (Q9UPE1 whole entry): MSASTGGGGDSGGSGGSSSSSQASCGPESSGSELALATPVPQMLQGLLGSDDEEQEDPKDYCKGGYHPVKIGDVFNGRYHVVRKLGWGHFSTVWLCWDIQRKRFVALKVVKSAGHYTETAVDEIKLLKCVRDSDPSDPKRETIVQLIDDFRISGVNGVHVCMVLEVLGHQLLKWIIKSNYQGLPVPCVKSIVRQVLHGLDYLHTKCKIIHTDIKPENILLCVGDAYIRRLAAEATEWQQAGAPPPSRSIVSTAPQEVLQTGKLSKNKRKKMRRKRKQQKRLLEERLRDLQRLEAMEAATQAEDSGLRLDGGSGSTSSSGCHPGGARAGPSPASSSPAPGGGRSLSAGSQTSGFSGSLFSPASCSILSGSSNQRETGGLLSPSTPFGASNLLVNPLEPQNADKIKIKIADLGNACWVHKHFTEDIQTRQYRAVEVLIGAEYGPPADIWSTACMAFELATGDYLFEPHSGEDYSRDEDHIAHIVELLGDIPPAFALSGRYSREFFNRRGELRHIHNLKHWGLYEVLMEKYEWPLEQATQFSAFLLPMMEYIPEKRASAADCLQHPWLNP

MAP3K15 = target: T17, MAP3K15 (Homo sapiens, UniProt Q6ZN16); assay: KINOMEscan
T17 construct: purchased DiscoveRx KINOMEscan

PRKCD = target: T18, PRKCD (Homo sapiens, UniProt Q05655); assay: KINOMEscan
T18 construct: purchased DiscoveRx KINOMEscan

BRAF(V600E) = target: T19, BRAF(V600E) (Homo sapiens, UniProt P15056, V600E); assay: KINOMEscan
T19 construct: purchased DiscoveRx KINOMEscan

PIM2 = target: T20, PIM2 (Homo sapiens, UniProt Q9P1W9); assay: KINOMEscan
T20 construct: purchased DiscoveRx KINOMEscan

PCTK2 = target: T21, PCTK2 (Homo sapiens, UniProt Q00537); assay: KINOMEscan
T21 construct: purchased DiscoveRx KINOMEscan

CDC2L5 = target: T22, CDC2L5 (Homo sapiens, UniProt Q14004); assay: KINOMEscan
T22 construct: purchased DiscoveRx KINOMEscan
Procedure: (§1) 1.1. Table S1 KINOMEscan Data. The KINOMEscan was performed at DiscoveRx. For
(§2) a more detailed description of this assay technology, see: Fabian, M. A.; Biggs, W.
(§3) H., III; Treiber, D. K.; Atteridge, C. E.; Azimioara, M. D.; Benedetti, M. G.; Carter,
(§4) T. A.; Ciceri, P.; Edeen, P. T.; Floyd, M.; Ford, J. M.; Galvin, M.; Gerlach, J. L.;
(§5) Grotzfeld, R. M.; Herrgard, S.; Insko, D. E.; Insko, M. A.; Lai, A. G.; Lélias, J..M.;
(§6) Mehta, S. A.; Milanov, Z. V.; Velasco, A. M.; Wodicka, L. M.; Patel, H. K.;
(§7) Zarrinkar, P. P.; Lockhart, D. J. A small molecule–kinase interaction map for clinical
(§8) Target Gene Symbol %Ctrl @ 1000 nM BAY-598
(§9) ABL1(H396P)-nonphosphorylated 92
(§10) ABL1(Q252H)-nonphosphorylated 66
(§11) ABL1(T315I)-nonphosphorylated 77
(§12) ABL1-nonphosphorylated 79

PRP4 = target: T23, PRP4 (Homo sapiens, UniProt Q13523); assay: KINOMEscan
T23 construct: purchased DiscoveRx KINOMEscan
Procedure: as §1, §2, §3, §4, §5, §6, §7, §8, §9, §10, §11, §12

[1] = target: T24, RSK4(Kin.Dom.2-C-terminal) (Homo sapiens, UniProt Q9UK32); assay: KINOMEscan
T24 construct: RSK4(Kin.Dom.2-C-terminal); purchased DiscoveRx KINOMEscan
T24 sequence (Q9UK32 426-683 limits assumed): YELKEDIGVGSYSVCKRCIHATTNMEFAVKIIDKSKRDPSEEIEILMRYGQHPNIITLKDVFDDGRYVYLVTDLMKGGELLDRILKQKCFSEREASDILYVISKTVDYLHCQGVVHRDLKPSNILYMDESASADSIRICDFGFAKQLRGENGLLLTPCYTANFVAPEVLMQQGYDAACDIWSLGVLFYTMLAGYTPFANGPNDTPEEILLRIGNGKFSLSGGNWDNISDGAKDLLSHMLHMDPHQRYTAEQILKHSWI

BMPR1B = target: T25, BMPR1B (Homo sapiens, UniProt O00238); assay: KINOMEscan
T25 construct: purchased DiscoveRx KINOMEscan

NEK1 = target: T26, NEK1 (Homo sapiens, UniProt Q96PY6); assay: KINOMEscan
T26 construct: purchased DiscoveRx KINOMEscan

[2] = target: T27, JAK2(JH1domain-catalytic) (Homo sapiens, UniProt O60674); assay: KINOMEscan
T27 construct: JAK2(JH1domain-catalytic); purchased DiscoveRx KINOMEscan

PIK3CA(E542K) = target: T28, PIK3CA(E542K) (Homo sapiens, UniProt P42336, E542K); assay: KINOMEscan
T28 construct: purchased DiscoveRx KINOMEscan

MLK1 = target: T29, MLK1 (Homo sapiens, UniProt P80192); assay: KINOMEscan
T29 construct: purchased DiscoveRx KINOMEscan

CAMK2A = target: T30, CAMK2A (Homo sapiens, UniProt Q9UQM7); assay: KINOMEscan
T30 construct: purchased DiscoveRx KINOMEscan

MAP4K3 = target: T31, MAP4K3 (Homo sapiens, UniProt Q8IVH8); assay: KINOMEscan
T31 construct: purchased DiscoveRx KINOMEscan
T31 sequence (Q8IVH8 whole entry): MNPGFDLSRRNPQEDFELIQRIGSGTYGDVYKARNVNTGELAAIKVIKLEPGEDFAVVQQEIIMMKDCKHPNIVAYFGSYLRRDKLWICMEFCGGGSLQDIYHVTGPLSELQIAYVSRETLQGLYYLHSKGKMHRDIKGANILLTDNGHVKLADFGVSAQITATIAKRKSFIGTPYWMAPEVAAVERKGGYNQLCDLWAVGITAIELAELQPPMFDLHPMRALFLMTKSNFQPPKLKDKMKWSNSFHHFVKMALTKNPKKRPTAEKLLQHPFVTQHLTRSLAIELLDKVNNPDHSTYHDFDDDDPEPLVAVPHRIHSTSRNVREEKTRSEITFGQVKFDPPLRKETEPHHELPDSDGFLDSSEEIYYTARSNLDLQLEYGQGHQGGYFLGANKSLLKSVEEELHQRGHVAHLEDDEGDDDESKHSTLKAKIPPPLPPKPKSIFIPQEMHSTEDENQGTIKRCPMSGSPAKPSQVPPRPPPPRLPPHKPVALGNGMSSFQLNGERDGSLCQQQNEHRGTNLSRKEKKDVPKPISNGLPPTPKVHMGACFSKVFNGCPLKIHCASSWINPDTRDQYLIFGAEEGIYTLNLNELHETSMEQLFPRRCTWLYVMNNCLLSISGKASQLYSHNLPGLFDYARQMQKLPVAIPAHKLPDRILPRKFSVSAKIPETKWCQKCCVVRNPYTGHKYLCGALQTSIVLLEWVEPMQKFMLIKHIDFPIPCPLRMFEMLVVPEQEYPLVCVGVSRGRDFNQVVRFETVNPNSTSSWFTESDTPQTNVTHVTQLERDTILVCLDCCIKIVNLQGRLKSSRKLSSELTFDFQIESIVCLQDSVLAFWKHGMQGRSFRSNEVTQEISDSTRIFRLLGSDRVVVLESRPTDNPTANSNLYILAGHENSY

CHEK1 = target: T32, CHEK1 (Homo sapiens, UniProt O14757); assay: KINOMEscan
T32 construct: purchased DiscoveRx KINOMEscan

AXL = target: T33, AXL (Homo sapiens, UniProt P30530); assay: KINOMEscan
T33 construct: purchased DiscoveRx KINOMEscan

PAK3 = target: T34, PAK3 (Homo sapiens, UniProt O75914); assay: KINOMEscan
T34 construct: purchased DiscoveRx KINOMEscan

RAF1 = target: T35, RAF1 (Homo sapiens, UniProt P04049); assay: KINOMEscan
T35 construct: purchased DiscoveRx KINOMEscan
T35 sequence (P04049 whole entry): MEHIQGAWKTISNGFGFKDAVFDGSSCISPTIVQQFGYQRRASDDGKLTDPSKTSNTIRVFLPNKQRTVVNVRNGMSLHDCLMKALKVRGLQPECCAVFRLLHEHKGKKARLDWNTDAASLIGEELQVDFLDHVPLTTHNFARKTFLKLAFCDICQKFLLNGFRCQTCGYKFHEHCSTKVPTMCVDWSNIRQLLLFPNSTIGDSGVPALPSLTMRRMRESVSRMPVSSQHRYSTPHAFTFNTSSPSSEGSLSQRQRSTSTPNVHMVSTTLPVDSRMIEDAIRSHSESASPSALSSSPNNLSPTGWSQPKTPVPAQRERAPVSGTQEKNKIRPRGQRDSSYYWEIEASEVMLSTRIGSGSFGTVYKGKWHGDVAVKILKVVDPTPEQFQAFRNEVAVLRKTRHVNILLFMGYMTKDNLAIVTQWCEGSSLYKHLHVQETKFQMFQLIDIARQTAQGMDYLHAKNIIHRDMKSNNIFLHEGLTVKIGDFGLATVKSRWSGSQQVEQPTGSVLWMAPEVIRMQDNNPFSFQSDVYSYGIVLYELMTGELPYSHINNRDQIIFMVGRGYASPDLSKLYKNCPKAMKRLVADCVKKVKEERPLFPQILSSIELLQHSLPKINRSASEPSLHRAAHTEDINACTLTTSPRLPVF

FGFR3(G697C) = target: T36, FGFR3(G697C) (Homo sapiens, UniProt P22607, G697C); assay: KINOMEscan
T36 construct: purchased DiscoveRx KINOMEscan

T2 sequence (Q8N752 whole entry): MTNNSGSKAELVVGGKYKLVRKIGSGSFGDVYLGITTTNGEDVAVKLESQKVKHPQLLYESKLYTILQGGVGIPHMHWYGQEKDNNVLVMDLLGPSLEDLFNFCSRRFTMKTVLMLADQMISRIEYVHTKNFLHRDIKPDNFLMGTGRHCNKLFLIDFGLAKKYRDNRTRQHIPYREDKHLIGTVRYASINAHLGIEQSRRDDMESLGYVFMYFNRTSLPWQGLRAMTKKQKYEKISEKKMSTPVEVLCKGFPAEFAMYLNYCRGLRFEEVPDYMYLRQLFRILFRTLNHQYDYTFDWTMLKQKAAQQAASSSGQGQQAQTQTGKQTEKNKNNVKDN
T1 sequence (O94768 whole entry): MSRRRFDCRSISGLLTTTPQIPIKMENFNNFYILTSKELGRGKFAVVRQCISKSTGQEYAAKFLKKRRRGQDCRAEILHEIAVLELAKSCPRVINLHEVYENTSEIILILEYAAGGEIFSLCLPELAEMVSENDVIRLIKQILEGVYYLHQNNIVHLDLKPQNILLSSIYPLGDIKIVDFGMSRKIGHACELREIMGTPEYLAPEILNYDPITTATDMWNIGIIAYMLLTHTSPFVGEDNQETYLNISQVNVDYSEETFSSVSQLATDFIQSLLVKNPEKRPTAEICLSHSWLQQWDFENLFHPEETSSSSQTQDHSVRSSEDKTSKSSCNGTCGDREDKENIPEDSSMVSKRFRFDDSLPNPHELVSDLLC

What does the source list for `CCN(C(=O)CO)[C@H]1CN(/C(=N\C#N)Nc2cccc(OC(F)F)c2)N=C1c1ccc(Cl)c(Cl)c1` [(S)-4]?
remaining binding at 1 µM (DRAK2): 100%; remaining binding at 1 µM (CSNK1A1L): 94%; remaining binding at 1 µM (PIK4CB): 100%; remaining binding at 1 µM (NEK4): 100%; remaining binding at 1 µM (DCAMKL2): 93%; remaining binding at 1 µM (ROCK1): 98%; remaining binding at 1 µM (CDK2): 100%; remaining binding at 1 µM (MYLK4): 100%; remaining binding at 1 µM (GAK): 100%; remaining binding at 1 µM (MERTK): 73%; remaining binding at 1 µM (MAP3K2): 100%; remaining binding at 1 µM (PRKD2): 100%; remaining binding at 1 µM (p38-delta): 72%; remaining binding at 1 µM (RET(V804M)): 100%; remaining activity at 1 µM (PKNB(M.tuberculosis)): 88%; remaining binding at 1 µM (SRPK3): 79%; remaining binding at 1 µM (MAP3K15): 69%; remaining binding at 1 µM (PRKCD): 89%; remaining binding at 1 µM (BRAF(V600E)): 100%; remaining binding at 1 µM (PIM2): 90%; remaining binding at 1 µM (PCTK2): 91%; remaining binding at 1 µM (CDC2L5): 81%; remaining binding at 1 µM (PRP4): 90%; remaining binding at 1 µM [1]: 100%; remaining binding at 1 µM (BMPR1B): 100%; remaining binding at 1 µM (NEK1): 93%; remaining binding at 1 µM [2]: 100%; remaining binding at 1 µM (PIK3CA(E542K)): 92%; remaining binding at 1 µM (MLK1): 100%; remaining binding at 1 µM (CAMK2A): 100%; remaining binding at 1 µM (MAP4K3): 90%; remaining binding at 1 µM (CHEK1): 98%; remaining binding at 1 µM (AXL): 91%; remaining binding at 1 µM (PAK3): 100%; remaining binding at 1 µM (RAF1): 100%; remaining binding at 1 µM (FGFR3(G697C)): 75%
